Experimental data from patent US10407467B2, “Polymyxin derivatives and their use in combination therapy together with different antibiotics” (priority 2013, dated 2019).
Structures can show the parent of a compound that is named as a salt. Bridge positions count the residues as written; N and C are the ends. Square brackets hold non-standard residues; d marks the D form. Peptide text beside a SMILES is read from it. ξ: configuration not given here. Thr(3ξ) = CC(O)[C@H](N)C(=O)O; Dab = NCC[C@H](N)C(=O)O; Inp = O=C(O)C1CCNCC1

How the values were obtained:
Assay type in all cases: cell-based
Acinetobacter baumannii [1] = test: MIC, compound in combination with a second agent (broth microdilution); conditions: 1:1 (wt:wt) combination with Rifampicin
Outline: (§1)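 Compound and second agent (e.g. rifampicin) were combined 1:1 w/w, compound weighed as its TFA or sulphate salt. Inoculum was a direct colony suspension from 18-24 hour Mueller-Hinton agar at 0.5 McFarland. MIC is the total drug concentration; lower of duplicates reported, modal value when tested repeatedly.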

Klebsiella pneumoniae [2] = test: as above; conditions: 1:1 (wt:wt) combination with Rifampicin
Outline: as §1

Pseudomonas aeruginosa [3] = test: as above; conditions: 1:1 (wt:wt) combination with Rifampicin
Outline: as §1

Escherichia coli = test: as above; conditions: 1:1 (wt:wt) combination with Rifampicin
Outline: as §1

Acinetobacter baumannii [4] = test: MIC, sole activity (no second agent); conditions: in the absence of Rifampicin; strain ATCC13424
Outline: (§2)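 Inoculum: direct colony suspension (18-24 h MH agar), 0.5 McFarland. Medium: cation-adjusted MHB. Up to 4 strains/species; reported relative to Polymyxin B.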

Klebsiella pneumoniae [5] = test: MIC, sole activity (no second agent); conditions: in the absence of Rifampicin
Outline: as §2

Pseudomonas aeruginosa [6] = test: MIC, sole activity (no second agent); conditions: in the absence of Rifampicin; strain CCUG 59626
Outline: as §2

[7] = MIC is total drug concentration

## CC(C)C[C@@H]1NC(=O)[C@@H](Cc2ccccc2)NC(=O)[C@H](CCN)NC(=O)[C@@H](NC(=O)[C@H](CCN)NC(=O)[C@@H](NC(=O)C2CCNCC2)C(C)O)CCNC(=O)[C@H](C(C)O)NC(=O)[C@H](CCN)NC(=O)[C@H](CCN)NC1=O (stereo partly shown) [Example 29, 4-piperidinecarbonyl polymyxin B nonapeptide, trifluoroacetate] (H-[Inp][Thr(3ξ)][Dab][Dab][Dab][dF]L[Dab][Dab][Thr(3ξ)]; lactam 4-C)
Acinetobacter baumannii [1]; MIC = total drug concentration, strain ATCC BAA-747
  MIC A. baumannii ATCC BAA-747: ≤0.06 micrograms/mL
Acinetobacter baumannii [1]; MIC = total drug concentration, strain CCUG57249
  MIC A. baumannii CCUG57249: 0.125 micrograms/mL
Acinetobacter baumannii [1]; MIC = total drug concentration, strain NCTC 13423
  MIC A. baumannii NCTC 13423: ≤0.06 micrograms/mL
Acinetobacter baumannii [1]; MIC = total drug concentration, strain NCTC 13424
  MIC A. baumannii NCTC 13424: 0.125 micrograms/mL
Acinetobacter baumannii [1]; [7]
  MIC A. baumannii ATCC BAA-747: ≤0.06 micrograms/mL
  MIC A. baumannii CCUG57249: 0.125 micrograms/mL
  MIC A. baumannii NCTC 13423: ≤0.06 micrograms/mL
  MIC A. baumannii NCTC 13424: 0.125 micrograms/mL
Klebsiella pneumoniae [2]; MIC = total drug concentration, strain ATCC 4352
  MIC K. pneumoniae ATCC 4352: ≤0.06 micrograms/mL
Klebsiella pneumoniae [2]; MIC = total drug concentration, strain ATCC-BAA-2146
  MIC K. pneumoniae ATCC-BAA-2146: 0.25 micrograms/mL
Klebsiella pneumoniae [2]; MIC = total drug concentration, strain CCUG-59348
  MIC K. pneumoniae CCUG-59348: 4 micrograms/mL
Klebsiella pneumoniae [2]; MIC = total drug concentration, strain NCTC 13438
  MIC K. pneumoniae NCTC 13438: 0.5 micrograms/mL
Klebsiella pneumoniae [2]; [7]
  MIC K. pneumoniae ATCC-BAA-2146: 0.25 micrograms/mL
  MIC K. pneumoniae CCUG-59348: 4 micrograms/mL
  MIC K. pneumoniae NCTC 13438: 0.5 micrograms/mL
Pseudomonas aeruginosa [3]; MIC = total drug concentration, strain ATCC 27853
  MIC P. aeruginosa ATCC 27853: 0.125 micrograms/mL
Pseudomonas aeruginosa [3]; MIC = total drug concentration, strain ATCC CRM-9027
  MIC P. aeruginosa ATCC CRM-9027: 0.125 micrograms/mL
Pseudomonas aeruginosa [3]; MIC = total drug concentration, strain ATCC-47
  MIC P. aeruginosa ATCC-47: 0.25 micrograms/mL
Pseudomonas aeruginosa [3]; MIC = total drug concentration, strain CCUG 59626
  MIC P. aeruginosa CCUG 59626: 0.125 micrograms/mL
Pseudomonas aeruginosa [3]; [7]
  MIC P. aeruginosa ATCC 27853: 0.125 micrograms/mL
  MIC P. aeruginosa ATCC CRM-9027: 0.125 micrograms/mL
  MIC P. aeruginosa ATCC-47: 0.25 micrograms/mL
  MIC P. aeruginosa CCUG 59626: 0.125 micrograms/mL
Escherichia coli; MIC = total drug concentration, strain ATCC25922
  MIC E. coli ATCC25922: 0.125 micrograms/mL
Escherichia coli; MIC = total drug concentration, strain NCTC9001
  MIC E. coli NCTC9001: 0.25 micrograms/mL
Escherichia coli; [7]
  MIC E. coli ATCC25922: 0.125 micrograms/mL
  MIC E. coli NCTC9001: 0.25 micrograms/mL
Acinetobacter baumannii [4]
  MIC A. baumannii ATCC13424: 2 micrograms/mL
Klebsiella pneumoniae [5]; strain ATCC-BAA2146
  MIC K. pneumoniae ATCC-BAA2146: >32 micrograms/mL
Klebsiella pneumoniae [5]; strain CCUG-59348
  MIC K. pneumoniae CCUG-59348: >32 micrograms/mL
Pseudomonas aeruginosa [6]
  MIC P. aeruginosa CCUG 59626: 0.125 micrograms/mL
